Data: ChEMBL document CHEMBL1201862, “PubChem BioAssay data set” (2004)
The source made the active and inactive calls.

Key:
[1] = biological target: T1, Neuropeptide Y receptor type 1 (Homo sapiens, UniProt P25929); assay: Fluorescence-based counterscreen for potentiators or agonists of NPY-Y2: cell-based high-throughput dose response assay for potentiators or agonists of NPY-Y1.; format: functional
T1 sequence (P25929 whole entry): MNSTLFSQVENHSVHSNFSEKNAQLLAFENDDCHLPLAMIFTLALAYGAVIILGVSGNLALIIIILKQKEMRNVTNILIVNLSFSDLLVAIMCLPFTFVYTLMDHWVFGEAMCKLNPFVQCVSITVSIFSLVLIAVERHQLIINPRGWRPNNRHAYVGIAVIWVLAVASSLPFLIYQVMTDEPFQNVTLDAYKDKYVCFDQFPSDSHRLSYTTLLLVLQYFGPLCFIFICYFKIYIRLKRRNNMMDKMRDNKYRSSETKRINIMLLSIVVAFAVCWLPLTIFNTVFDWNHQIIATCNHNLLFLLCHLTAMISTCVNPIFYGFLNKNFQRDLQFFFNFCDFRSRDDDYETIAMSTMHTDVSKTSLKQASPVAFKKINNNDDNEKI

HEK293 = assay: Fluorescence-based counterscreen for potentiators or agonists of NPY-Y2: cell-based high-throughput dose response assay to identify inhibitors of cyclic nucleotide gated ion channel (CNGC) activity. In this assay, the parental HEK293 cell line transfected with a cyclic-nucleotide gated ion channel (CNGC)-based cAMP sensor is used to measure inhibition of isoproterenol-induced CNGC activity by test compound.; format: functional; conditions: Homo sapiens
[2] = system: Streptococcus sp. 'group A'; assay: growth inhibition of control SK(-) GAS strain, dose response, counter-screen for streptokinase expression inhibitor project, luminescence, kanamycin, BacTiterGlo, confirmation (AID 1900); format: functional, organism-based
[3] = biological target: T2, Neuropeptide Y receptor type 2 (Homo sapiens, UniProt P49146); assay: Fluorescence-based cell-based high-throughput dose response assay for agonists of NPY-Y2. [Related pubchem assays: 1703 (Screening assay (CNGC inhibitors).), 1359 (Screening assay (NPY-Y2 potentiators or agonists).), 1304 (Screening assay (NPY-Y1 potentiators or agonists).), 1710 (Screening assay (NPY-Y2 agonists).), 1791 (Summary AID.)]; format: functional
T2 sequence (P49146 whole entry): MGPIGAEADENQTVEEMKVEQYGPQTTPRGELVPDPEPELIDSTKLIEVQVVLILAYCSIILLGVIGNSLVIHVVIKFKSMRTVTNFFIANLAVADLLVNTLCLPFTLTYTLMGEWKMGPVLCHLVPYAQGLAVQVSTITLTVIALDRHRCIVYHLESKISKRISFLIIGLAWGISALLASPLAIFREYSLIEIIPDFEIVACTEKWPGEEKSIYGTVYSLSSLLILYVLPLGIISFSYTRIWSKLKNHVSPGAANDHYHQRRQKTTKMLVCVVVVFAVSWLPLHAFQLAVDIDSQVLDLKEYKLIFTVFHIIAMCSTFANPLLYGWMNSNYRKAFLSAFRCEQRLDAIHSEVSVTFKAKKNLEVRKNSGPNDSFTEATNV

Streptokinase A = biological target: T3, Streptokinase A (Streptococcus pyogenes serotype M1, UniProt P10520); assay: S. pyogenes streptokinase expression inhibitors, potency, dose response, plasminogen activation absorbance, OD405 (AID 1914); format: functional, Streptococcus pyogenes M1 GAS;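 note: secreted streptokinase activity via plasminogen activation per viability signal from cell pellet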
T3 sequence (P10520 whole entry): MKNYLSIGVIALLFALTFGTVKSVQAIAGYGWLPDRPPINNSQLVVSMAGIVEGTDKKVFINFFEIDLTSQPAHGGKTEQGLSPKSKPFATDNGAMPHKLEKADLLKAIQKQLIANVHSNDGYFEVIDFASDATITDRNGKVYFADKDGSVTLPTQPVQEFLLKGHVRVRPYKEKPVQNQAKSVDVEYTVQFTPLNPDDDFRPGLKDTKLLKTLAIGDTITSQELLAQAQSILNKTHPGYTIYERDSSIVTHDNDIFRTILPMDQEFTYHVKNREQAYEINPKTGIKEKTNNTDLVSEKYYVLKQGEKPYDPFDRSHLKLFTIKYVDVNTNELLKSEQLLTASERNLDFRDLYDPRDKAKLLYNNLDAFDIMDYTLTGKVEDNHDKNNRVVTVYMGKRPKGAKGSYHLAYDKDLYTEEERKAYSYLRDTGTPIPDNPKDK

[4] = biological target: G-protein coupled receptor 55 (Homo sapiens, UniProt Q9Y2T6); assay: GPR55 antagonists blocking LPI-driven arrestin recruitment, primary screen, imaging, U2OS, beta-arrestin-GFP, LPI agonist (AID 2013); format: functional;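 note: antagonist potency measured as reduced agonist-driven arrestin aggregation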
Sequence of G-protein coupled receptor 55 (Q9Y2T6 whole entry): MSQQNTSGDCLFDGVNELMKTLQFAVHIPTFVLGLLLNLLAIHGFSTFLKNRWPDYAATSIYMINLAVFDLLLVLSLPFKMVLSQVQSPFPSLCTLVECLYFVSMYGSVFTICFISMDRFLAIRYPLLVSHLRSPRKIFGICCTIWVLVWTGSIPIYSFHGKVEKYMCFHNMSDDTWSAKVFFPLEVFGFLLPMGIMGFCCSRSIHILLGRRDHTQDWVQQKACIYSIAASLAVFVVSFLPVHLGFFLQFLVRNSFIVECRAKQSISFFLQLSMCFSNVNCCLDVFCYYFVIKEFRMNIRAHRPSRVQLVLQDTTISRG

[5] = biological target: T2, Neuropeptide Y receptor type 2; assay: Fluorescence-based cell-based high-throughput dose response assay for potentiators or agonists of NPY-Y2. [Related pubchem assays: 1539 (Screening assay (NPY-Y2 potentiators or agonists).), 1703 (Screening assay (CNGC inhibitors).), 1359 (Screening assay (NPY-Y2 potentiators or agonists).), 1304 (Screening assay (NPY-Y1 potentiators or agonists).) …; format: functional
[6] = biological target: T1, Neuropeptide Y receptor type 1; assay: Fluorescence-based counterscreen for agonists of NPY-Y2: cell-based high-throughput dose response assay for agonists of NPY-Y1.; format: functional
Streptococcus = assay: Group A Streptococcus viability loss, dose response, counter-screen for streptokinase expression inhibitor project, luminescence, BacTiterGlo (AID 1915); format: functional, organism-based;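 note: potency for reduction of bacterial viability or growth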
[7] = HeLa cell cytotoxicity, dose response, cytotoxicity control for MgcRacGAP inhibitor project (AID 624300); format: functional
[8] = biological target: T4, Rac GTPase-activating protein 1 (Homo sapiens, UniProt Q9H0H5); assay: MgcRacGAP GTPase-activating activity inhibitors, confirmation, biochemical, ADP Hunter fluorescence, primary and confirmatory (AID 624330); format: functional
T4 sequence (Q9H0H5 whole entry): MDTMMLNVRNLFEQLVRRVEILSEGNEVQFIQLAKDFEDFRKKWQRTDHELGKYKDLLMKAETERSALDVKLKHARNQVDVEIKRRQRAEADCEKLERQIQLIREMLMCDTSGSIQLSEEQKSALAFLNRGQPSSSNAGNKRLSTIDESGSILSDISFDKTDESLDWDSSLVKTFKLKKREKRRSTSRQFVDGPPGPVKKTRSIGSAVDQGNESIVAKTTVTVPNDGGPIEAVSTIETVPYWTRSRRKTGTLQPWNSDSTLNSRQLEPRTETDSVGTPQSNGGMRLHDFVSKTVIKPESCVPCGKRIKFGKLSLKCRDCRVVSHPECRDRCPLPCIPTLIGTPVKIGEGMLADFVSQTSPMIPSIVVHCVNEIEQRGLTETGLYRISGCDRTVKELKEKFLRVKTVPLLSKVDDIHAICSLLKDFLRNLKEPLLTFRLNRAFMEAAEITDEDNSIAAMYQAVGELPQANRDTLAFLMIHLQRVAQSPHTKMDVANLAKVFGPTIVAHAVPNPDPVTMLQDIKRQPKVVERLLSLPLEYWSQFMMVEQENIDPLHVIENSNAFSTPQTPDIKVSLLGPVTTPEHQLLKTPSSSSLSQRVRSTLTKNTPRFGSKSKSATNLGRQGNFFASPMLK

NADPH oxidase 1 = biological target: T5, NADPH oxidase 1 (Homo sapiens, UniProt Q9Y5S8); assay: Luminescence-based cell-based dose response assay to identify inhibitors of NADPH oxidase 1 (NOX1).; format: functional
T5 sequence (Q9Y5S8 whole entry): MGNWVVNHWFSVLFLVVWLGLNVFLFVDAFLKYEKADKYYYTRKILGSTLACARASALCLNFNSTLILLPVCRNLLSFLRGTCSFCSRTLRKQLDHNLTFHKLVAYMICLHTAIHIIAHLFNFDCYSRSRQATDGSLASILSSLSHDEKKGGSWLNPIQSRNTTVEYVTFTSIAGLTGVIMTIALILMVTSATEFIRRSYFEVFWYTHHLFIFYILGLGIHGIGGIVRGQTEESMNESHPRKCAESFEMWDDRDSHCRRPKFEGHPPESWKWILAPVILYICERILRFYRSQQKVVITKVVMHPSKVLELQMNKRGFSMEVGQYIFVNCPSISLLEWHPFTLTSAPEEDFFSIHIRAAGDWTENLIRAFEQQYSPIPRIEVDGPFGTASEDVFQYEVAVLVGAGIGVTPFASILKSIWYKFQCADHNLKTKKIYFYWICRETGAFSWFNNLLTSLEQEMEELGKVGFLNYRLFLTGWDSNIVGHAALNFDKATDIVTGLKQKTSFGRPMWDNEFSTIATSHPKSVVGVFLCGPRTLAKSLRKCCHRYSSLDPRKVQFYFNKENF

[9] = biological target: Induced myeloid leukemia cell differentiation protein Mcl-1 (Homo sapiens, UniProt Q07820); format: functional
Sequence of Induced myeloid leukemia cell differentiation protein Mcl-1 (Q07820 whole entry): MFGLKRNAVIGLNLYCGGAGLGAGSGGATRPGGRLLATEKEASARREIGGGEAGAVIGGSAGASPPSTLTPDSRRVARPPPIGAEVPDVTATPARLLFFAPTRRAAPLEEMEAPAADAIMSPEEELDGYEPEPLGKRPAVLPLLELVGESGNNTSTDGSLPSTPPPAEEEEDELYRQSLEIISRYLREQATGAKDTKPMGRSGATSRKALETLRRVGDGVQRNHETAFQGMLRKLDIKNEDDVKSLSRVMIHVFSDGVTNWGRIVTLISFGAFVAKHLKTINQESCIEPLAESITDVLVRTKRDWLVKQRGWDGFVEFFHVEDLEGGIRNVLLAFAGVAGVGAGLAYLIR

[10] = A High Throughput Confirmatory Assay used to Identify Novel Compounds that Inhibit Mycobacterium Tuberculosis in the absence of Glycerol.; format: functional

## CCOC(=O)c1nc(Nc2ccc(Nc3ccccc3)cc2)c2ccccc2n1
[1]
  EC50: 13.2 µM (not active)
HEK293
  EC50: > 11.8 µM (not active)
[2]
  EC50: 10.2 µM (active)
[3]
  EC50: 10.1 µM (not active)
Streptokinase A
  EC50: > 150 µM (not active)
[4]
  IC50: 2.48 µM (active)
[5]
  EC50: 13.2 µM (not active)
[6]
  EC50: 10.9 µM (not active)
Streptococcus
  EC50: 12.8 µM (active)
[7]
  CC50: 44.8 µM (active)
[8]
  IC50: 105 µM (active)

## CCN(CC)c1ccc(NC(=O)Nc2cccc(C(C)=O)c2)cc1
NADPH oxidase 1
  IC50: 0.083 µM (active)
[9]
  IC50: 3.13 µM (not active)

## COC(=O)[C@@H](NC(=O)O[C@@H]1C(=O)c2ccc(OC)cc2O[C@H]1c1cccc(C(F)(F)F)c1)C(C)C
[10]
  IC50: > 100 µM (active)
